Consider 29 compounds from US11548880B2, “Modulators of hemoglobin” (Global Blood Therapeutics, Inc., priority 2018, dated 2023).

The experiment concerns the target T1, Hb (Homo sapiens, UniProt P68871+P69905).
T1 construct: from tissue; host or cells: whole blood
Nature of the experiment: Whole blood assay: oxygen equilibrium curves (Hemox Analyzer), change in p50. In kind it is cell-based. Particulars: whole blood incubated 1 h at 37° C., equimolar ratio of hemoglobin to compound. As for the experimental part: Whole blood assay: Oxygen equilibrium curves (OECs) were collected using a TCS Hemox Analyzer (TCS Scientific Company, New Hope, Pa., USA) to measure changes in the binding affinity of O2 to Hb. Whole blood was incubated for 1 h at 37° C. with the indicated compounds in an equimolar ratio of hemoglobin to compound and diluted into TES (2-[[1,3-dihydroxy-2-(hydroxymethyl)propan-2-yl]amino]ethanesulfonic acid)/saline buffer prior to measurements. For example, for whole blood at 20% hematocrit [Hct], which corresponds to 1 mM Hb, a compound concentration of 1 mM was used (for example, for compounds 1-5), and the incubated sample diluted 50- to 100-fold. The concentration for compounds 6-44 (Diastereomers 1 and 2) varied but remained in equimolar ratio to hemoglobin. The diluted samples were then oxygenated with compressed air within the Hemox Analyzer and the OECs were collected during deoxygenation as previously described (Guarnone et al., Haematologica, 1995, 80, 426-430). p 50 (partial pressure of O2 at which Hb is 50% saturated with O2) values were obtained using a non-linear regression analysis. Percentage change in p50 [Δp50(%)] was calculated as follows: Δp50(%)=[(p50 of control)−p50 with compound)/p50 control]×100.

T1 sequence (P69905 2-142 limits assumed): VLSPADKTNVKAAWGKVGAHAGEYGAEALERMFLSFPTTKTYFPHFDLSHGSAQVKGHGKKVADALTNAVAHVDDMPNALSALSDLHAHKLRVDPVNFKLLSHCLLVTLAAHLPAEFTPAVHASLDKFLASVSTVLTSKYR
T1 sequence (P68871 2-147 limits assumed): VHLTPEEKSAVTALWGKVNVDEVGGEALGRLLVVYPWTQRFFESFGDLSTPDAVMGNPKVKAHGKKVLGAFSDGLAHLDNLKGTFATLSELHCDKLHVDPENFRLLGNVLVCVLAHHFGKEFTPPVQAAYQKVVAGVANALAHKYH

Take `O=Cc1c(O)cccc1OCC1CSCCN1C(=O)c1cccnc1CCO` (single isomer, unassigned) [10 (Enantiomer 1), 2-hydroxy-6-((4-(2-(2-hydroxyethyl)nicotinoyl)-thiomorpholin-3-yl)-methoxy)benzaldehyde]: the “Delta-p50 (%)” value came out at 65.6%.

As to `O=Cc1c(O)cccc1OCC1CSCCN1C(=O)c1cccnc1CO` (single isomer, unassigned) [13 (Enantiomer 2), 2-hydroxy-6-((4-(2-(hydroxymethyl)nicotinoyl)-thiomorpholin-3-yl)-methoxy)benzaldehyde], the “Delta-p50 (%)” value came out at 61.0%.

For `O=Cc1c(O)cccc1OC[C@@H]1CCCCN1C(=O)c1ccccc1C(O)CO` (single isomer, unassigned) [34 (Diastereomer 1)], the “Delta-p50 (%)” value is listed as 80.43%.

On to `O=Cc1c(O)cccc1OC[C@@H]1CCCCN1C(=O)c1ccccc1C(O)CO` (single isomer, unassigned) [34 (Diastereomer 2)], for which the “Delta-p50 (%)” value was 81.59%.

In the case of `O=Cc1c(O)cccc1OCC1CSCCN1C(=O)c1ccccc1CO` (single isomer, unassigned) [40 (Enantiomer 1), 2-hydroxy-6-((4-(2-(hydroxymethyl)benzoyl)-thiomorpholin-3-yl)-methoxy)benzaldehyde], the “Delta-p50 (%)” value is given as 64.31%.

For the compound `CC(O)c1ncccc1C(=O)N1CCOC[C@H]1COc1cccc(O)c1C=O` (single isomer, unassigned) [41 (Diastereomer 1)], the “Delta-p50 (%)” value turned out to be 66.71%.

With `CC(O)c1ncccc1C(=O)N1CCOC[C@H]1COc1cccc(O)c1C=O` (single isomer, unassigned) [41 (Diastereomer 2)], the “Delta-p50 (%)” value was 53.94%.

As to `CC(O)Cc1ncccc1C(=O)N1CCOC[C@H]1COc1cccc(O)c1C=O` (single isomer, unassigned) [42 (Diastereomer 1)], the “Delta-p50 (%)” value was 76.39%.

Turning to `CC(O)Cc1ncccc1C(=O)N1CCOC[C@H]1COc1cccc(O)c1C=O` (single isomer, unassigned) [42 (Diastereomer 2)], the “Delta-p50 (%)” value is on record as 75.05%.

As for `CC(O)c1ncccc1C(=O)N1CCSC[C@H]1COc1cccc(O)c1C=O` (single isomer, unassigned) [43 (Diastereomer 1)], the “Delta-p50 (%)” value came to 64.50%.

With `CC(O)c1ncccc1C(=O)N1CCSC[C@H]1COc1cccc(O)c1C=O` (single isomer, unassigned) [43 (Diastereomer 2)], the “Delta-p50 (%)” value was 64.56%.

Consider `CC(O)Cc1ncccc1C(=O)N1CCSC[C@H]1COc1cccc(O)c1C=O` (single isomer, unassigned) [44 (Diastereomer 1)], for which the “Delta-p50 (%)” value turned out to be 66.57%.

For the compound `CC(O)Cc1ncccc1C(=O)N1CCSC[C@H]1COc1cccc(O)c1C=O` (single isomer, unassigned) [44 (Diastereomer 2)], the “Delta-p50 (%)” value was found to be 54.34%.

Consider `COCCc1ncccc1C(=O)N1CCCC[C@H]1COc1cccc(O)c1C=O` [Compound 2, (S)-2-hydroxy-6-((1-(2-(2-methoxyethyl)nicotinoyl)piperidin-2-yl)methoxy)benzaldehyde], for which the “Delta-p50 (%)” value amounted to 84.4%.

Turning to `N#CCCc1ncccc1C(=O)N1CCCC[C@H]1COc1cccc(O)c1C=O` [Compound 3, (S)-3-(3-(2-((2-formyl-3-hydroxyphenoxy)methyl)piperidine-1-carbonyl)pyridin-2-yl)propanenitrile], the “Delta-p50 (%)” value was 85.8%.

Consider `O=Cc1c(O)cccc1OC[C@@H]1CCCCN1C(=O)c1cccnc1CCN1CCCC1` [Compound 4, (S)-2-hydroxy-6-((1-(2-(2-(pyrrolidin-1-yl)ethyl)nicotinoyl)piperidin-2-yl)methoxy)benzaldehyde], for which the “Delta-p50 (%)” value is 75.5%.

Regarding `O=Cc1c(O)cccc1OC[C@@H]1CCCCN1C(=O)c1ccccc1CO` [Compound 5, (S)-2-hydroxy-6-((1-(2-(hydroxymethyl)benzoyl)piperidin-2-yl)methoxy)benzaldehyde], the “Delta-p50 (%)” value is given as 81.0%.

Take `O=Cc1c(O)cccc1OC[C@@H]1CCCCN1C(=O)c1ccccc1CCO` [Compound 6, (S)-2-hydroxy-6-((1-(2-(2-hydroxyethyl)benzoyl)-piperidin-2-yl)methoxy)-benzaldehyde]: the “Delta-p50 (%)” value worked out at 74.5%.

Turning to `O=Cc1c(O)cccc1OC[C@@H]1CCCCN1C(=O)c1nccnc1CCO` [Compound 7, (S)-2-hydroxy-6-((1-(3-(2-hydroxyethyl)pyrazine-2-carbonyl)piperidin-2-yl)methoxy)benzaldehyde], the “Delta-p50 (%)” value came to 62.7%.

For the compound `O=Cc1c(O)cccc1OC[C@@H]1CCCN1C(=O)c1cccnc1CCO` [Compound 9, (S)-2-hydroxy-6-((1-(2-(2-hydroxyethyl)-nicotinoyl)pyrrolidin-2-yl)methoxy)benzaldehyde], the “Delta-p50 (%)” value stood at 62.2%.

As for `COCCc1ccccc1C(=O)N1CCCC[C@H]1COc1cccc(O)c1C=O` [Compound 14, (S)-2-hydroxy-6-((1-(2-(2-methoxyethyl)benzoyl)piperidin-2-yl)methoxy)benzaldehyde], the “Delta-p50 (%)” value is recorded as 74.56%.

As for `N#CCCc1ccccc1C(=O)N1CCCC[C@H]1COc1cccc(O)c1C=O` [Compound 15, (S)-3-(2-(2-((2-formyl-3-hydroxyphenoxy)methyl)piperidine-1-carbonyl)phenyl)propanenitrile], the “Delta-p50 (%)” value was 80.5%.

Take `O=Cc1c(O)cccc1OC[C@@H]1CCCCN1C(=O)c1ncccc1CCO` [Compound 16, (S)-2-hydroxy-6-((1-(3-(2-hydroxyethyl)picolinoyl)piperidin-2-yl)methoxy)benzaldehyde]: the “Delta-p50 (%)” value is reported as 49.55%.

For `O=Cc1c(O)cccc1OC[C@@H]1CCCCN1C(=O)c1ccccc1CCN1CCCC1` [Compound 17, (S)-2-hydroxy-6-((1-(2-(2-(pyrrolidin-1-yl)ethyl)benzoyl)piperidin-2-yl)methoxy)benzaldehyde], the “Delta-p50 (%)” value stood at 27.09%.

As to `O=Cc1c(O)cccc1OC[C@@H]1CCCCN1C(=O)c1cccnc1CCCO` [Compound 18, (S)-2-hydroxy-6-((1-(2-(3-hydroxypropyl)nicotinoyl)-piperidin-2-yl)methoxy)-benzaldehyde], the “Delta-p50 (%)” value stood at 79.67%.

In the case of `O=Cc1c(O)cccc1OC[C@@H]1CCCN1C(=O)c1nccnc1CCO` [Compound 19, (S)-2-hydroxy-6-((1-(3-(2-hydroxyethyl)pyrazine-2-carbonyl)pyrrolidin-2-yl)methoxy)benzaldehyde], the “Delta-p50 (%)” value amounted to 54.67%.

Regarding `O=Cc1c(O)cccc1OC[C@@H]1COCCN1C(=O)c1nccnc1CCO` [Compound 21, 2-hydroxy-6-{[(3S)-4-[3-(2-hydroxyethyl)pyrazine-2-carbonyl]morpholin-3-yl]methoxy}benzaldehyde], the “Delta-p50 (%)” value is recorded as 60.21%.

Take `O=Cc1c(O)cccc1OC[C@@H]1COCCN1C(=O)c1ccccc1CCO` [Compound 22, 2-hydroxy-6-{[(3S)-4-[2-(2-hydroxyethyl)benzoyl]morpholin-3-yl]methoxy}benzaldehyde]: the “Delta-p50 (%)” value turned out to be 70.32%.

With `COCCc1ncccc1C(=O)N1CCC[C@H]1COc1cccc(O)c1C=O` [Compound 24, 2-hydroxy-6-{[(2S)-1-[2-(2-methoxyethyl)pyridine-3-carbonyl]pyrrolidin-2-yl]methoxy}benzaldehyde], the “Delta-p50 (%)” value is 65.51%.
